Reference: PMC2699469 (PLoS Pathogens, 2009)
Peptide text beside a SMILES is read from it. * marks the point of attachment. Palmitoyl = CCCCCCCCCCCCCCCC(=O)*

Each molecule was assayed on HIV-1 ENV-mediated fusion of Jurkat HXBc2 (effector) with Jurkat E6-1 (target) cells (assay: Cell-cell fusion inhibition assay (DiI/DiD lipophilic probes, flow cytometry)). Details: Jurkat E6-1 + Jurkat HXBc2 1:1, co-incubated 6 h, eight peptide concentrations, FACS, Hill-type fit; at least four independent experiments, ± standard deviation.
Type: cell-based
Experimental: The protocol utilizing Jurkat E6-1 and Jurkat HXBc2 cells for a cell-cell fusion assay was previously described. In short, Jurkat E6-1 and Jurkat HXBc2 cells were labeled with DiI and DiD lipophilic fluorescent probes, respectively. The two cell populations were co-incubated, in a ratio of 1∶1, for 6 h in the presence of eight different concentrations of the inhibitory peptides. Prior to measurements the cells were washed, spinned, dissolved in PBS, and put on ice. Cells co-incubated without the presence of peptides served as an optimal fusion reference. Unlabeled cells that were handled similarly served as an intrinsic fluorescence control. Cells labeled separately with DiI or DiD were used to adjust the optimal separation of fluorescent signals. Jurkat HXBc2 cells labeled with DiI were co-incubated with Jurkat HXBc2 cells labeled with DiD for a fusion background that was subtracted from the measurements of the experiment. The following alterations were applied to the original protocol: (i) 5 µL of a 1 mg/mL DiI or DiD solution in dimethylsulfoxide (DMSO) was added to 1 mL of 4×10^6 cells/mL Jurkat E6-1 or Jurkat HXBc2 cells, respectively. (ii) For each data point 150,000 events were collected. Measurements were performed on a FACSort machine, upgraded to a FACSCalibur cell analyzer (Becton Dickinson). […] For the fitting, we uploaded the X and Y values of the raw data (after subtracting the background) into a nonlinear least squares regression (curve fitter) program that provided the IC50 value (A of the equation), as well as the c value.

Molecule	IC50 [nM]
CCCCCCCCCCCCCCCC(=O)N[C@@H](CO)C(=O)NCC(=O)N[C@H](C(=O)N[C@@H](CC(=O)O)C(=O)N[C@@H](CCC(N)=O)C(=O)N[C@@H](CCC(=O)O)C(=O)N[C@@H](CCC(N)=O)C(=O)N[C@@H](CC(N)=O)C(=O)N[C@@H](CC(N)=O)C(=O)N[C@@H](CC(C)C)C(=O)N[C@H](C(=O)N[C@@H](CCCNC(=N)N)C(=O)N[C@@H](CC(C)C)C(=O)N[C@H](C(=O)N[C@@H](CCC(=O)O)C(=O)N[C@@H](C)C(=O)N[C@@H](CCC(N)=O)C(=O)N[C@H](C(=O)N[C@@H](Cc1c[nH]cn1)C(=O)N[C@@H](CCC(=O)O)C(=O)N[C@@H](CC(C)C)C(=O)N[C@@H](CCC(N)=O)C(=O)N[C@@H](CC(C)C)C(=O)N[C@H](C(=O)N[C@@H](CCC(N)=O)C(=O)N[C@@H](Cc1c[nH]c2ccccc12)C(=O)N[C@@H](CCCCN)C(=O)N[C@H](C(=O)N[C@@H](CCCCN)C(=O)N[C@@H](CCC(N)=O)C(=O)N[C@@H](CC(C)C)C(=O)N[C@@H](CC(C)C)C(=O)N[C@@H](C)C(=O)N[C@@H](CCCNC(=N)N)C(=O)N[C@H](C(=O)N[C@@H](CC(C)C)C(=O)N[C@@H](CCCCN)C(N)=O)[C@@H](C)CC)[C@@H](C)CC)[C@@H](C)O)[C@@H](C)CC)[C@@H](C)CC)[C@@H](C)O)[C@@H](C)CC [C16-N36 MUTe,g] (Palmitoyl-SGIDQEQNNLTRLIEAQIHELQLTQWKIKQLLARILK-NH2)	162 ± 4
CCCCCCCCCCCCCCCC(=O)NCCCC[C@H](NC(=O)[C@H](CC(C)C)NC(=O)[C@@H](NC(=O)[C@H](CCCNC(=N)N)NC(=O)[C@H](C)NC(=O)[C@H](CC(C)C)NC(=O)[C@H](CC(C)C)NC(=O)[C@H](CCC(N)=O)NC(=O)[C@H](CCCCN)NC(=O)[C@@H](NC(=O)[C@H](CCCCN)NC(=O)[C@H](Cc1c[nH]c2ccccc12)NC(=O)[C@H](CCC(N)=O)NC(=O)[C@@H](NC(=O)[C@H](CC(C)C)NC(=O)[C@H](CCC(N)=O)NC(=O)[C@H](CC(C)C)NC(=O)[C@H](CCC(=O)O)NC(=O)[C@H](Cc1c[nH]cn1)NC(=O)[C@@H](NC(=O)[C@H](CCC(N)=O)NC(=O)[C@H](C)NC(=O)[C@H](CCC(=O)O)NC(=O)[C@@H](NC(=O)[C@H](CC(C)C)NC(=O)[C@H](CCCNC(=N)N)NC(=O)[C@@H](NC(=O)[C@H](CC(C)C)NC(=O)[C@H](CC(N)=O)NC(=O)[C@H](CC(N)=O)NC(=O)[C@H](CCC(N)=O)NC(=O)[C@H](CCC(=O)O)NC(=O)[C@H](CCC(N)=O)NC(=O)[C@H](CC(=O)O)NC(=O)[C@@H](NC(=O)CNC(=O)[C@@H](N)CO)[C@@H](C)CC)[C@@H](C)O)[C@@H](C)CC)[C@@H](C)CC)[C@@H](C)O)[C@@H](C)CC)[C@@H](C)CC)C(N)=O [N36 MUTe,g-C16] (H-SGIDQEQNNLTRLIEAQIHELQLTQWKIKQLLARILK(Palmitoyl)-NH2)	8.8 ± 4
H-SGIDQEQNNLTRLIEAQIHELQLTQWKIKQLLARILK-NH2 [N36 MUTe,g, reference compound]	936 ± 36
